According to PMC4657098, “A Review of the Updated Pharmacophore for the Alpha 5 GABA(A) Benzodiazepine Receptor Model” (International Journal of Medicinal Chemistry, 2015):

How the values were obtained:
α5β3γ2 GABAA receptor [1] = target: T1, α5β3γ2 GABAA receptor (Homo sapiens, UniProt P18507+P31644); test: Oocyte electrophysiology, α5β3γ2; format: cell-based
T1 construct: expressed in transfected cells; host or cells: Xenopus oocytes

5ht1a = target: T2, 5ht1a (Homo sapiens, UniProt P08908); test: PDSP receptor binding, 5ht1a; settings: PDSP primary screen at 10 µM
T2 construct: purchased NIMH PDSP (Psychoactive Drug Screening Program, Roth lab, Case Western Reserve)

5ht1e = target: T3, 5ht1e (Homo sapiens, UniProt P28566); test: PDSP receptor binding, 5ht1e; settings: PDSP primary screen at 10 µM
T3 construct: purchased NIMH PDSP (Psychoactive Drug Screening Program, Roth lab, Case Western Reserve)

5ht2a = target: T4, 5ht2a (Homo sapiens, UniProt P28223); test: PDSP receptor binding, 5ht2a; settings: PDSP primary screen at 10 µM
T4 construct: purchased NIMH PDSP (Psychoactive Drug Screening Program, Roth lab, Case Western Reserve)

5ht2b = target: T5, 5ht2b (Homo sapiens, UniProt P41595); test: PDSP receptor binding, 5ht2b; settings: PDSP primary screen at 10 µM
T5 construct: purchased NIMH PDSP (Psychoactive Drug Screening Program, Roth lab, Case Western Reserve)

5ht2c = target: T6, 5ht2c (Homo sapiens, UniProt P28335); test: PDSP receptor binding, 5ht2c; settings: PDSP primary screen at 10 µM
T6 construct: purchased NIMH PDSP (Psychoactive Drug Screening Program, Roth lab, Case Western Reserve)

5ht3 = target: T7, 5ht3 (Homo sapiens, UniProt P46098); test: PDSP receptor binding, 5ht3; settings: PDSP primary screen at 10 µM
T7 construct: purchased NIMH PDSP (Psychoactive Drug Screening Program, Roth lab, Case Western Reserve)

5ht5a = target: T8, 5ht5a (Homo sapiens, UniProt P47898); test: PDSP receptor binding, 5ht5a; settings: PDSP primary screen at 10 µM
T8 construct: purchased NIMH PDSP (Psychoactive Drug Screening Program, Roth lab, Case Western Reserve)

5ht6 = target: T9, 5ht6 (Homo sapiens, UniProt P50406); test: PDSP receptor binding, 5ht6; settings: PDSP primary screen at 10 µM
T9 construct: purchased NIMH PDSP (Psychoactive Drug Screening Program, Roth lab, Case Western Reserve)

α2A = target: T10, α2A (Homo sapiens, UniProt P08913); test: PDSP receptor binding, α2A; settings: PDSP primary screen at 10 µM
T10 construct: purchased NIMH PDSP (Psychoactive Drug Screening Program, Roth lab, Case Western Reserve)

α2B = target: T11, α2B (Homo sapiens, UniProt P18089); test: PDSP receptor binding, α2B; settings: PDSP primary screen at 10 µM
T11 construct: purchased NIMH PDSP (Psychoactive Drug Screening Program, Roth lab, Case Western Reserve)

Beta1 = target: T12, Beta1 (Homo sapiens, UniProt P08588); test: PDSP receptor binding, Beta1; settings: PDSP primary screen at 10 µM
T12 construct: purchased NIMH PDSP (Psychoactive Drug Screening Program, Roth lab, Case Western Reserve)

CB1 = target: T13, CB1 (Homo sapiens, UniProt P21554); test: PDSP receptor binding, CB1; settings: PDSP primary screen at 10 µM
T13 construct: purchased NIMH PDSP (Psychoactive Drug Screening Program, Roth lab, Case Western Reserve)

D2 = target: T14, D2 (Homo sapiens, UniProt P14416); test: PDSP receptor binding, D2; settings: PDSP primary screen at 10 µM
T14 construct: purchased NIMH PDSP (Psychoactive Drug Screening Program, Roth lab, Case Western Reserve)

D3 = target: T15, D3 (Homo sapiens, UniProt P35462); test: PDSP receptor binding, D3; settings: PDSP primary screen at 10 µM
T15 construct: purchased NIMH PDSP (Psychoactive Drug Screening Program, Roth lab, Case Western Reserve)

D4 = target: T16, D4 (Homo sapiens, UniProt P21917); test: PDSP receptor binding, D4; settings: PDSP primary screen at 10 µM
T16 construct: purchased NIMH PDSP (Psychoactive Drug Screening Program, Roth lab, Case Western Reserve)

DAT = target: T17, DAT (Homo sapiens, UniProt Q01959); test: PDSP receptor binding, DAT; settings: PDSP primary screen at 10 µM
T17 construct: purchased NIMH PDSP (Psychoactive Drug Screening Program, Roth lab, Case Western Reserve)

H1 = target: T18, H1 (Homo sapiens, UniProt P35367); test: PDSP receptor binding, H1; settings: PDSP primary screen at 10 µM
T18 construct: purchased NIMH PDSP (Psychoactive Drug Screening Program, Roth lab, Case Western Reserve)

H2 = target: T19, H2 (Homo sapiens, UniProt P25021); test: PDSP receptor binding, H2; settings: PDSP primary screen at 10 µM
T19 construct: purchased NIMH PDSP (Psychoactive Drug Screening Program, Roth lab, Case Western Reserve)

H3 = target: T20, H3 (Homo sapiens, UniProt Q9Y5N1); test: PDSP receptor binding, H3; settings: PDSP primary screen at 10 µM
T20 construct: purchased NIMH PDSP (Psychoactive Drug Screening Program, Roth lab, Case Western Reserve)

Imidaz oline = test: PDSP receptor binding, Imidazoline; settings: PDSP primary screen at 10 µM
KOR = KOR (Homo sapiens, UniProt P41145); test: PDSP receptor binding, KOR; settings: Case Western Reserve University, read-out: KOR Ki (secondary binding)
M2 = target: T21, M2 (Homo sapiens, UniProt P08172); test: PDSP receptor binding, M2; settings: PDSP primary screen at 10 µM
T21 construct: purchased NIMH PDSP (Psychoactive Drug Screening Program, Roth lab, Case Western Reserve)

M3 = target: T22, M3 (Homo sapiens, UniProt P20309); test: PDSP receptor binding, M3; settings: PDSP primary screen at 10 µM
T22 construct: purchased NIMH PDSP (Psychoactive Drug Screening Program, Roth lab, Case Western Reserve)

M4 = target: T23, M4 (Homo sapiens, UniProt P08173); test: PDSP receptor binding, M4; settings: PDSP primary screen at 10 µM
T23 construct: purchased NIMH PDSP (Psychoactive Drug Screening Program, Roth lab, Case Western Reserve)

M5 = target: T24, M5 (Homo sapiens, UniProt P08912); test: PDSP receptor binding, M5; settings: PDSP primary screen at 10 µM
T24 construct: purchased NIMH PDSP (Psychoactive Drug Screening Program, Roth lab, Case Western Reserve)

MDR = test: PDSP receptor binding, MDR; settings: PDSP primary screen at 10 µM
NMDA = test: PDSP receptor binding, NMDA; settings: PDSP primary screen at 10 µM
SERT = target: T25, SERT (Homo sapiens, UniProt P31645); test: PDSP receptor binding, SERT; settings: PDSP primary screen at 10 µM
T25 construct: purchased NIMH PDSP (Psychoactive Drug Screening Program, Roth lab, Case Western Reserve)

σ1 = target: T26, σ1 (Homo sapiens, UniProt Q99720); test: PDSP receptor binding, σ1; settings: PDSP primary screen at 10 µM
T26 construct: purchased NIMH PDSP (Psychoactive Drug Screening Program, Roth lab, Case Western Reserve)

σ2 = test: PDSP receptor binding, σ2; settings: PDSP primary screen at 10 µM
α1β3γ2 BzR/GABA(A) = settings: Figure 1; LTK cells; read-out: Binding affinity α1; cited from earlier work
α2β3γ2 BzR/GABA(A) = settings: Figure 1; LTK cells; read-out: Binding affinity α2; cited from earlier work
α3β3γ2 BzR/GABA(A) = settings: Figure 1; LTK cells; read-out: Binding affinity α3; cited from earlier work
α5β3γ2 BzR/GABA(A) = settings: text b7; read-out: Ki at the α5β3γ2 subtype; cited from earlier work
α6β3γ2 BzR/GABA(A) = settings: Figure 1; LTK cells; read-out: Binding affinity α6; cited from earlier work
α3β3γ2 GABAA receptor = settings: cited from earlier work
α5β3γ2 GABAA receptor [2] = target: T1, α5β3γ2 GABAA receptor; settings: cited from earlier work
[3] = test system: Bz BS of GABA(A) receptors; settings: Supplement Table 1; cited from earlier work
α1β3γ2 GABAA/BzR = α1β3γ2 GABAA/BzR (Homo sapiens, UniProt P14867+P18507); test: Competition binding to HEK cell membranes, α1β3γ2; parameters: expressed in transfected cells; settings: Ki α1
α2β3γ2 GABAA/BzR = α2β3γ2 GABAA/BzR (Homo sapiens, UniProt P18507+P47869); test: Competition binding to HEK cell membranes, α2β3γ2; parameters: expressed in transfected cells; settings: Ki α2
α5β3γ2 GABAA/BzR = α5β3γ2 GABAA/BzR (Homo sapiens, UniProt P18507+P31644); test: Competition binding to HEK cell membranes, α5β3γ2; parameters: expressed in transfected cells; settings: Ki α5

C#Cc1ccc2c(c1)C(=O)N(C)Cc1c(C(=O)OCCCOC(=O)c3ncn4c3CN(C)C(=O)c3cc(C#C)ccc3-4)ncn1-2 [XLi-093 (4), 1,3-Bis(8-acetyleno-5,6-dihydro-5-methyl-6-oxo-4H-imidazo[1,5a][1,4]benzodiazepine-3-carboxy) propyl diester]
efficacy type at the α5 subtype (α5β3γ2 GABAA receptor [1]): antagonist | 5ht1a binding (5ht1a): ∗ (“∗” indicates “primary missed” (<50% inhibition at 10 µM)) | 5ht1e binding (5ht1e): ∗ (“∗” indicates “primary missed” (<50% inhibition at 10 µM)) | 5ht2a binding (5ht2a): ∗ (“∗” indicates “primary missed” (<50% inhibition at 10 µM)) | 5ht2b binding (5ht2b): ∗ (“∗” indicates “primary missed” (<50% inhibition at 10 µM)) | 5ht2c binding (5ht2c): ∗ (“∗” indicates “primary missed” (<50% inhibition at 10 µM)) | 5ht3 binding (5ht3): ∗ (“∗” indicates “primary missed” (<50% inhibition at 10 µM)) | 5ht5a binding (5ht5a): ∗ (“∗” indicates “primary missed” (<50% inhibition at 10 µM)) | 5ht6 binding (5ht6): ∗ (“∗” indicates “primary missed” (<50% inhibition at 10 µM)) | α2A binding (α2A): ∗ (“∗” indicates “primary missed” (<50% inhibition at 10 µM)) | α2B binding (α2B): ∗ (“∗” indicates “primary missed” (<50% inhibition at 10 µM)) | Beta1 binding (Beta1): ∗ (“∗” indicates “primary missed” (<50% inhibition at 10 µM)) | CB1 binding (CB1): ∗ (“∗” indicates “primary missed” (<50% inhibition at 10 µM)) | D2 binding (D2): ∗ (“∗” indicates “primary missed” (<50% inhibition at 10 µM)) | D3 binding (D3): ∗ (“∗” indicates “primary missed” (<50% inhibition at 10 µM)) | D4 binding (D4): ∗ (“∗” indicates “primary missed” (<50% inhibition at 10 µM)) | DAT binding (DAT): ∗ (“∗” indicates “primary missed” (<50% inhibition at 10 µM)) | H1 binding (H1): ∗ (“∗” indicates “primary missed” (<50% inhibition at 10 µM)) | H2 binding (H2): ∗ (“∗” indicates “primary missed” (<50% inhibition at 10 µM)) | H3 binding (H3): ∗ (“∗” indicates “primary missed” (<50% inhibition at 10 µM)) | Imidaz oline binding (Imidaz oline): ∗ (“∗” indicates “primary missed” (<50% inhibition at 10 µM)) | Ki (KOR): 2.02 µM | M2 binding (M2): ∗ (“∗” indicates “primary missed” (<50% inhibition at 10 µM)) | M3 binding (M3): ∗ (“∗” indicates “primary missed” (<50% inhibition at 10 µM)) | M4 binding (M4): ∗ (“∗” indicates “primary missed” (<50% inhibition at 10 µM)) | M5 binding (M5): ∗ (“∗” indicates “primary missed” (<50% inhibition at 10 µM)) | MDR binding (MDR): ∗ (“∗” indicates “primary missed” (<50% inhibition at 10 µM)) | NMDA binding (NMDA): ∗ (“∗” indicates “primary missed” (<50% inhibition at 10 µM)) | SERT binding (SERT): ∗ (“∗” indicates “primary missed” (<50% inhibition at 10 µM)) | σ1 binding (σ1): ∗ (“∗” indicates “primary missed” (<50% inhibition at 10 µM)) | σ2 binding (σ2): ∗ (“∗” indicates “primary missed” (<50% inhibition at 10 µM)) | Ki (α1β3γ2 BzR/GABA(A)): > 1 µM | Ki (α2β3γ2 BzR/GABA(A)): > 1 µM | Ki (α3β3γ2 BzR/GABA(A)): 0.858 µM | Ki (α5β3γ2 BzR/GABA(A)): 0.015 µM | Ki (α6β3γ2 BzR/GABA(A)): > 2 µM | modulation of GABA induced chloride flux, α3β3γ2 (α3β3γ2 GABAA receptor; at 1 μM): did not modulate | influence on benzodiazepine (Valium) stimulation of GABA-induced current, α3β3γ2 (α3β3γ2 GABAA receptor): barely influenced | modulation of GABA induced chloride flux, α5β3γ2 (α5β3γ2 GABAA receptor [2]; at 1 μM): very slightly inhibited | influence on benzodiazepine (Valium) stimulation of GABA-induced current, α5β3γ2 (α5β3γ2 GABAA receptor [2]): shifted the diazepam dose response curve to the right | inhibition of diazepam-stimulated currents in α5β3γ2 receptors (α5β3γ2 GABAA receptor [2]): dose dependently and completely inhibit | modulation [3]: antagonist | Ki (α1β3γ2 GABAA/BzR): > 1 µM | Ki (α2β3γ2 GABAA/BzR): > 1 µM | Ki (α5β3γ2 GABAA/BzR): 0.015 µM
